# Laboratory results from patent US5519029A, “2-aminoalkyl-5-aminoalkylamino substituted-isoquinoindazole-6(2H)-ones” (Boehringer Mannheim Italia, S.p.A., priority 1993, dated 1996).
# Entries after “also recorded” stand apart in the source; their conditions may differ. Read-outs that look alike come from different tables or passages of the source.
# Legend:
# Lovo/DX [1] = assay: MTT cytotoxicity assay, multidrug-resistant subline Lovo/DX; format: cell-based, human; conditions: for IC50: Homo sapiens, read-out: IC50 LOVO/DX; for RI (resistance index): ratio of the IC50 for the resistant line cell to the IC50 for the sensitive cell line; for cross resistance / resistance in Lovo/DX (in words): Lovo/DX subline
# Description: (§1) The evaluation of the biological activity for the compounds of this invention was performed in vitro and in vivo following the protocols developed by the U.S. National Cancer Institute.
# (§2) The evaluation of the in vitro cytotoxic activity of the compounds of the invention was performed using a human colon adenocarcinoma cell line (Lovo) isolated from a metastatic nodule, and a subline expressing multidrug resistance. The subline is resistant to a number of antitumor agents, among which are doxorubicin, VP-16, and vincristine.
# [2] = tested on: human colon adenocarcinoma cell line (Lovo); assay: MTT cytotoxicity assay, Lovo cell line; format: cell-based; conditions: read-out: IC50 LOVO
# Description: as §1, §2
# [3] = rat; cited from earlier work
# [4] = dose limiting, phase I and phase II; cited from earlier work
# Lovo/DX [5] = conditions: characterisation of subline (Grandi et al. 1986); cited from earlier work
# [6] = i.p., non-tumor bearing rats, equieffective antitumor dosages; cited from earlier work
# [7] = mostly in patients previously treated with doxorubicin; cited from earlier work
# [8] = cited from earlier work; for cardiotoxicity in animals (in words): animal studies
# [9] = in vivo; cited from earlier work
# [10] = tested on: advanced breast cancer, acute leukemia and lymphoma; conditions: clinical trials; cited from earlier work
# [11] = tested on: cell histotypes developing resistance against doxorubicin mediated by overexpression of glycoprotein P; conditions: doxorubicin-resistant cells; cited from earlier work
# [12] = Lovo/DX (resistant) cells, MTT assay
# [13] = Lovo (sensitive) cells, MTT assay
smiles,measurement,setting,value
CN(C)CCNc1ccc2c3c(nn2CCN)-c2cnccc2C(=O)c13,IC50,Lovo/DX [1]; [12],5 µg/mL
same,RI (resistance index),Lovo/DX [1],16.7
same,IC50,[2]; [13],0.3 µg/mL
CN(C)CCn1nc2c3c(c(NCCN)ccc31)C(=O)c1ccncc1-2,IC50,Lovo/DX [1]; [12],22.4 µg/mL
same,RI (resistance index),Lovo/DX [1],44.8
same,IC50,[2]; [13],0.5 µg/mL
CN(C)CCNc1ccc2c3c(nn2CCN(C)C)-c2cnccc2C(=O)c13,IC50,Lovo/DX [1]; [12],0.9 µg/mL
same,RI (resistance index),Lovo/DX [1],1.8
same,IC50,[2]; [13],0.5 µg/mL
O=C1c2c(O)cccc2-c2nn(CCNCCO)c3ccc(NCCNCCO)c1c23 [CI-941],nephrotoxicity (in words),[3],marked nephrotoxicity
same,"neutropenia, W.H.O. grade",[4],4 W.H.O. grade
COc1cccc2c1C(=O)c1c(O)c3c(c(O)c1C2=O)C[C@@](O)(C(=O)CO)C[C@@H]3O[C@H]1C[C@H](N)[C@H](O)[C@H](C)O1 [DOXORUBICIN],IC50,Lovo/DX [1]; [12],66.6 µg/mL
same,RI (resistance index),Lovo/DX [1],74
same,resistance / accumulation in Lovo/DX subline (in words),Lovo/DX [5],resistant; also recorded: reduced accumulation
same,IC50,[2]; LoVo,0.9 µg/mL
"O=C1c2c(O)ccc(O)c2C(=O)c2c(NCCNCCO)ccc(NCCNCCO)c21 [MITOXANTRONE, 5,8-dihydroxy-1,4-bis{[2-(2-hydroxyethylamino)ethyl]amino}anthracene-9,10-dione]",delayed toxicity (in words),[6],delayed toxicity is observed only with mitoxantrone
same,clinical cardiotoxicity (in words),[7],some clinical cardiotoxicity has been observed
same,IC50,Lovo/DX [1]; LoVo/DX,0.9 µg/mL
same,cross resistance / resistance in Lovo/DX (in words),Lovo/DX [1],acquired resistance
same,cardiotoxicity in animals (in words),[8],diminished cardiotoxicity in comparison to doxorubicin
same,myelodepressive toxicity (in words),[9],remarkable myelodepressive toxicity
same,IC50,[2]; LoVo,0.04 µg/mL
same,clinical antitumor activity (in words),[10],"particularly promising activity in the treatment of advanced breast cancer, acute leukemia and lymphoma"
COc1cc([C@@H]2c3cc4c(cc3[C@@H](O[C@@H]3O[C@@H]5CO[C@@H](C)O[C@H]5[C@H](O)[C@H]3O)[C@H]3COC(=O)[C@H]23)OCO4)cc(OC)c1O [VP-16],resistance / accumulation in Lovo/DX subline (in words),Lovo/DX [5],resistant
"O=C1c2ccccc2C(=O)c2c(NCCNCCO)ccc(NCCNCCO)c21 [ametantrone, 1,4-bis{[2-(2-hydroxyethylamino)ethyl]amino}anthracene-9,10-dione]",cross resistance / resistance in Lovo/DX (in words),Lovo/DX [1],acquired resistance
same,cardiotoxicity in animals (in words),[8],less cardiotoxic than mitoxantrone
same,potency relative to mitoxantrone (fold less potent),[8]; in animals,about 10 fold
same,myelodepressive toxicity (in words),[9],remarkable myelodepressive toxicity
same,cross-resistance (in words),[11],cross-resistance
CC[C@]1(O)C[C@H]2CN(CCc3c([nH]c4ccccc34)[C@@](C(=O)OC)(c3cc4c(cc3OC)N(C=O)[C@H]3[C@@](O)(C(=O)OC)[C@H](OC(C)=O)[C@]5(CC)C=CCN6CC[C@]43[C@@H]65)C2)C1 [vincristine],resistance / accumulation in Lovo/DX subline (in words),Lovo/DX [5],resistant
